PubChem BioAssay (NCI)
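Method: 48-hour compound exposure of cells in 96-well plates, five concentrations, linear interpolation of endpoints. Abbreviation: GI50, concentration required for 50% inhibition of growth. TGI marks complete inhibition of growth.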

Assays:
Assay in all cases: growth of human tumour cells (NCI), 48 h
MALME-3M melanoma = system: MALME-3M melanoma
BT-549 breast = system: BT-549 breast
UACC-257 melanoma = system: UACC-257 melanoma
SNB-75 CNS = system: SNB-75 CNS
HCT-15 colon = system: HCT-15 colon
NCI/ADR-RES ovarian = system: NCI/ADR-RES ovarian
NCI-H23 lung = system: NCI-H23 lung
MOLT-4 leukemia = system: MOLT-4 leukemia
HOP-92 NSCLC = system: HOP-92 NSCLC
NCI-H226 lung = system: NCI-H226 lung

SMILES | GI50 (MALME-3M melanoma) [nM] | TGI (MALME-3M melanoma) [µM] | GI50 (BT-549 breast) [nM] | TGI (BT-549 breast) [µM] | GI50 (UACC-257 melanoma) [nM] | TGI (UACC-257 melanoma) [µM] | GI50 (SNB-75 CNS) [nM] | TGI (SNB-75 CNS) [µM] | GI50 (HCT-15 colon) [nM] | TGI (HCT-15 colon) [µM] | GI50 (NCI/ADR-RES ovarian) [nM] | TGI (NCI/ADR-RES ovarian) [µM] | GI50 (NCI-H23 lung) [nM] | TGI (NCI-H23 lung) [µM] | GI50 (MOLT-4 leukemia) [nM] | TGI (MOLT-4 leukemia) [µM] | GI50 (HOP-92 NSCLC) [nM] | TGI (HOP-92 NSCLC) [µM] | GI50 (NCI-H226 lung) [µM] | TGI (NCI-H226 lung) [µM]
COc1ccc2c(-c3ccnc(Nc4cccc(OC(F)(F)F)c4)n3)cnn2n1 | 5430 | > 25 | 1480 | > 25 | 1550 | > 25 | 806 | 4.88 | 1030 | > 23 | 730 | 6.74 | 1200 | 7.41 | 2230 | > 25 | 801 | 7.11 | > 10.3 | > 25
Nc1n[nH]c2ccc([C@@H]3Nc4cc5c(cc4[C@H]4C6CCC(C6)[C@@H]34)C(=O)NC5)cc12 (stereo not given in full) | 718 | > 100 | 320 | 1.71 | > 100000 | > 100 | 718 | > 100 | 601 | > 100 | 2690 | > 100 | 431 | > 100 | 415 | > 100 | 375 | > 100 | 0.461 | > 20.9
CCN1C(=O)N(CC)C2C1NN=c1s/c(=C\c3ccc(F)cc3)c(=O)n12 (stereo not given) | 28900 | > 100 | 759 | > 26.1 | 42900 | > 100 | 47.4 | 0.611 | 87.6 | > 100 | 168 | > 100 | 547 | > 100 | 418 | > 100 | 7430 | > 100 | 20.3 | > 100
C[C@@H]1Cc2cc(O)ccc2[C@H]2CC[C@]3(C)/C(=C/COCCN(C)C)CC[C@H]3[C@H]12 (tested in a mixture with another compound) | 324 | 0.865 | 294 | 0.8 | 495 | 2.01 | 235 | 0.755 | 205 | 0.55 | 192 | 0.419 | 107 | 0.36 | 83.3 | 0.487 | 216 | 0.872 | 0.744 | 1.97
C=CCc1cc(Nc2c3ccc(Cl)cc3nc3ccc(OC)cc23)cc(CN(CC)CC)c1O | 1870 | 6.78 | 1380 | 8.1 | 2210 | 9.27 | 3850 | 19.3 | 2590 | 12 | 2880 | 10.8 | 559 | 9.91 | 1240 | 4.92 | 1110 | 4.04 | 1.15 | 10.8
COc1ccc(/C=C(\C)[N+](=O)[O-])cc1OC | 1400 | 3.17 | 1860 | 3.36 | 1880 | 3.5 | 2200 | 12.2 | 1400 | 3.54 | 3550 | 13.4 | 2600 | 7.13 | 3860 | 9.52 | 2010 | 3.71 | 19.2 | 40.5
CN1CCc2nc3sc(C(N)=O)c(N)c3c(-c3cccs3)c2C1 | 5060 | 38.4 | 3260 | 35.5 | 4000 | > 100 | 2810 | 8.03 | 3310 | > 100 | 3690 | 98.8 | 2870 | 12.6 | 2890 | 48.4 | 3160 | 9.16 | 3.16 | > 100
